In general, kinetic solubility refers to solubility judged after dilution from a stock solution rather than from solid.

Converted amounts (≈) assume the structure as drawn.

The values that follow come from PubChem BioAssay AID1996.

For this data set the following is noted: buffer; pH 7.4; 200.0 µM.
`O=C(COC(=O)c1cc(S(=O)(=O)N2CCOCC2)ccc1O)Nc1ccc2c(c1)OCO2` returned a kinetic solubility greater than 69.7 µg/mL.
Take `O=[N+]([O-])c1ccc2c(c1)nc(CO)n2Cc1ccccc1`: the kinetic solubility turned out to be 9.3 µg/mL (≈ 32.8 µM).
As to `O=C(Nc1ccccc1)NC1CCCCNC1=O` (stereo not drawn), the kinetic solubility is greater than 37.1 µg/mL.
The molecule `Cc1ccc(/C=N/NC(=O)c2ccc3nc[nH]c3c2)o1` returned a solubility (kinetic) greater than 40.2 µg/mL.
Molecule `COc1ccc(NC(=O)N2CCc3ccccc3C2)cc1` returned a kinetic solubility of 17.8 µg/mL (≈ 63 µM).
For `CC12CC3CC(C)(C1)CC(C(=O)N1CCCC1)(C3)C2` the value was 3.9 µg/mL (≈ 14.9 µM).
Consider `COc1ccc(C(=O)COC(=O)/C=C/c2ccccc2[N+](=O)[O-])cc1`, for which the solubility (kinetic) turned out to be 10.2 µg/mL (≈ 29.9 µM).
`COCC(=O)Nc1ccc2c(c1)OCO2` displayed a kinetic solubility of 27.7 µg/mL (≈ 132 µM).
The value for `CCCCn1c(O)c(C(C)=Nc2ccc3c(c2)CCC3)c(=O)[nH]c1=O` was less than 0.2 µg/mL; that for `CCN(Cc1nc(-c2ccccc2)no1)C(=O)c1ccc2c(c1)OCO2` was 36.5 µg/mL (≈ 104 µM); that for `COc1ccc(CCNC(=O)Cc2cccs2)cc1OC` was greater than 45.8 µg/mL.
For `O=S(=O)(Nc1ncccn1)c1cc(Cl)ccc1Cl` the value was greater than 45.6 µg/mL; for `Cc1cc([N+](=O)[O-])nn1CC(=O)N1CCN(Cc2ccccc2)CC1`, greater than 51.5 µg/mL; for `CCN(CC)C(=O)N1c2ccccc2Sc2ccccc21`, 2.8 µg/mL (≈ 9.38 µM).
For `O=C(Nc1ccc(Cl)cn1)c1cc2c(s1)-c1ccccc1OC2` the value was less than 0.4 µg/mL; for `Cc1ccc2cc(C)c(N3CCN(c4ccc(F)cc4)CC3)nc2c1`, less than 0.2 µg/mL.
The molecule `COc1ccc(NC(=O)c2ccc(Oc3ncccn3)cc2)cc1` came in with a solubility (kinetic) of 10.6 µg/mL (≈ 33 µM).
The molecule `Cc1ccccc1CC(=O)Nc1ccc2c(C)cc(=O)oc2c1` displayed a solubility (kinetic) of 2.1 µg/mL (≈ 6.83 µM).
`O=C(c1cccnc1)N1c2ccccc2Sc2ccccc21` gave a solubility (kinetic) of 43.1 µg/mL (≈ 142 µM).
The value for `Cc1ccc(C(=O)C[n+]2cccc(C(N)=O)c2)cc1.[Br-]` was greater than 50.3 µg/mL; that for `Cc1ccc(NC(=O)N2CCC(C(=O)c3ccc(F)cc3)CC2)cc1` was 0.6 µg/mL (≈ 1.76 µM); that for `Cc1ccc(-n2c(-c3ccc(Cl)cc3)c[n+]3c2CCC3)cc1.[Br-]` was greater than 58.5 µg/mL.
Take `S=C(Nc1nc2c(s1)CCCC2)NC1CC1`: the solubility (kinetic) was found to be 5.7 µg/mL (≈ 22.5 µM).
Consider `COc1ccc(NC(=O)c2ccc(S(=O)(=O)N3CCCCC3)cc2)cc1OC`, for which the solubility (kinetic) came to 5.5 µg/mL (≈ 13.6 µM).
As for `O=C(Nc1ccc(Cl)cn1)c1cccc2ccccc12`, the kinetic solubility is 1.3 µg/mL (≈ 4.6 µM).
The molecule `CC(NC(=O)COc1ccccc1)C(=O)NCc1ccccc1Cl` (stereo not drawn) displayed a kinetic solubility greater than 52 µg/mL.
The molecule `COc1cc(Br)c(Br)cc1N` returned a kinetic solubility of 14.7 µg/mL (≈ 52.3 µM).
In turn, `CCOC(=O)Cn1nc(C)c(NC(=O)COc2cccc(Cl)c2)c1C` registered a kinetic solubility greater than 54.9 µg/mL.
Turning to `CC1CCN(c2ccc(C(F)(F)F)cc2N)CC1`, the solubility (kinetic) was less than 0.3 µg/mL.
Turning to `Cc1ccc([N+](=O)[O-])cc1S(=O)(=O)Nc1cccc(S(=O)(=O)NC2=NCCC2)c1`, the solubility (kinetic) is greater than 65.8 µg/mL.
On to `Cc1ccc(CN2CCCN(Cc3ccccc3C)S2(=O)=O)cc1`, for which the solubility (kinetic) came out at 0.5 µg/mL (≈ 1.45 µM).
`Cc1cc2oc(=O)cc(C)c2cc1NC(=O)CCl`: the kinetic solubility is 39.4 µg/mL (≈ 148 µM).
`CN1CC2([N+](=O)[O-])CC=C(Cl)C([N+](=O)[O-])(C1)C2` (stereo not drawn) gave a kinetic solubility greater than 39.3 µg/mL.
The molecule `O=C(c1ccc(Cl)cc1)n1cnc2ccccc21` yielded a kinetic solubility greater than 38.5 µg/mL.
Take `CCN1C(=O)N(CC)c2cccc3cccc1c23`: the kinetic solubility came to 1.6 µg/mL (≈ 6.66 µM).
Take `O=C(CS(=O)CC(=O)Nc1cccnc1)Nc1ccc(F)cc1` (stereo not drawn): the kinetic solubility was greater than 50.3 µg/mL.
The molecule `Cc1oc(-c2cccc(C(F)(F)F)c2)nc1CN1CCOCC1` returned a kinetic solubility of 44.3 µg/mL (≈ 136 µM).
With `CCOc1ccc(NC(=O)NC(C)c2ccc3c(c2)OCO3)cc1` (stereo not drawn), the kinetic solubility was found to be 1.9 µg/mL (≈ 5.79 µM).
Molecule `CCCN1C2CCCC1CC(NC(=S)NCCCOCC)C2` (stereo not drawn) had a kinetic solubility greater than 49.1 µg/mL.
`O=C(/C=C/c1ccc(Cl)c(Cl)c1)N1CCOCC1` showed a solubility (kinetic) of 35.5 µg/mL (≈ 124 µM).
`CC(=O)Nc1ccc(S(=O)(=O)N2c3ccc(F)cc3CCC2C)cc1` (stereo not drawn): the kinetic solubility worked out at 45.9 µg/mL (≈ 127 µM).
Turning to `NC(=O)CN1CCN(c2cccc(Cl)c2)CC1`, the solubility (kinetic) was determined as 33.9 µg/mL (≈ 134 µM).
For `C=CCNC(=S)N(Cc1ccccc1)Cc1ccccc1`, the solubility (kinetic) was 7.2 µg/mL (≈ 24.3 µM).
Molecule `COc1ccc(CCC(=O)Nc2ccc(C(=O)c3ccncc3)cc2)cc1` showed a solubility (kinetic) of 3.8 µg/mL (≈ 10.5 µM).
Consider `CC(C)Oc1ccc(C(=O)Nc2nc3ccccc3[nH]2)cc1`, for which the kinetic solubility came to 1.3 µg/mL (≈ 4.4 µM).
The molecule `COC(=O)CN1C(=O)N/C(=C/c2ccccc2OC)C1=O` gave a solubility (kinetic) greater than 43.5 µg/mL.
The molecule `O=C(Cn1c(=O)oc2ccccc21)Nc1ccccc1C(F)(F)F` showed a solubility (kinetic) of 10 µg/mL (≈ 29.7 µM).
Molecule `O=C(CNC(=O)c1ccccc1)OCC(=O)c1cccs1` displayed a solubility (kinetic) greater than 45.5 µg/mL.
In turn, `CC(C)CCNC(=O)C1c2ccccc2Oc2ccccc21` came in with a kinetic solubility of less than 0.6 µg/mL.
`Cl.NCCNC(=O)c1c(O)c2cccc3c2n(c1=O)CCC3` displayed a solubility (kinetic) of 48.3 µg/mL.
The molecule `O=c1c2ccccc2nc(/C=C/c2ccc(Cl)cc2)n1CCO` returned a solubility (kinetic) of 1.3 µg/mL (≈ 3.98 µM).
In turn, `CCOC(=O)C1(CC2CC2)CCN(C(=O)c2cccnc2C)CC1` registered a kinetic solubility greater than 49.6 µg/mL.
For `COc1ccc(NC(=O)[C@@H](NS(=O)(=O)c2cccc(Cl)c2)C(C)C)cc1S(=O)(=O)N1CCOCC1` the value was greater than 81.9 µg/mL; for `CO/N=C(/CN1CCCCC1)c1ccc(Cl)cc1`, 8.9 µg/mL (≈ 33.4 µM).
`CCC(C)c1ccccc1NC(=O)c1[nH]c(C)c(C(C)=O)c1C` (stereo not drawn): the solubility (kinetic) is 2 µg/mL (≈ 6.4 µM).
Regarding `O=C(/C=C/c1ccco1)Nc1nc(-c2ccc(F)c(F)c2)cs1`, the kinetic solubility is less than 0.4 µg/mL.
`Cc1cc(C)n2nc(C(=O)OCC(=O)Nc3ccc(C)c(F)c3)nc2n1` displayed a kinetic solubility greater than 53.6 µg/mL.
As to `CCOC(=O)CSc1nnc(CNC(=O)c2cccc(C)c2)n1C`, the solubility (kinetic) is greater than 52.3 µg/mL.
The value for `Cc1nc(NCc2ccccc2)sc1C(=O)Nc1ccccc1` was 0.8 µg/mL (≈ 2.47 µM); that for `O=C(NCC1CCCO1)c1ccc[nH]1` (stereo not drawn) was greater than 29.1 µg/mL; that for `CC(=O)C1=C(O)C(=O)N(C)C1c1ccccc1[N+](=O)[O-]` (stereo not drawn) was greater than 41.4 µg/mL.
In turn, `COc1cc(C(=O)COC(=O)c2ccncc2)cc(OC)c1OC` displayed a solubility (kinetic) greater than 49.7 µg/mL.
As for `Cc1ccsc1CNS(=O)(=O)c1ccc(F)cc1`, the solubility (kinetic) is 30 µg/mL (≈ 105 µM).
`Br.CN(C)C1=NCC(CSC(=N)N)S1` (stereo not drawn) showed a solubility (kinetic) of 32.5 µg/mL.
Molecule `COc1cccc(CN(C)C(=O)Cc2c[nH]c3ccccc23)c1` showed a solubility (kinetic) greater than 46.3 µg/mL.
On to `Cc1cc(C)cc(NC(=O)C2CC3CCC2C3)c1` (stereo not drawn), for which the solubility (kinetic) came out at 6.8 µg/mL (≈ 27.9 µM).
In the case of `CCCCOc1ccc(OCCCN2CCOCC2)cc1.Cl`, the kinetic solubility was greater than 49.5 µg/mL.
Molecule `Cc1cc(C(=O)N(C)CC(=O)Nc2ccc(F)c(F)c2F)no1` yielded a solubility (kinetic) greater than 49.1 µg/mL.
Take `COc1ccc(-c2nnc(SCC(=O)Nc3c(Cl)cc(Cl)cc3C(=O)O)o2)cc1`: the kinetic solubility was greater than 68.1 µg/mL.
The value for `Cc1ccc(C(=O)N2CCN(c3ccc([N+](=O)[O-])cc3)CC2)o1` was 40.2 µg/mL (≈ 127 µM).
For `CCC(=O)c1ccc(OCC(=O)NC2CCN(Cc3ccccc3)CC2)cc1` the value was greater than 57.1 µg/mL.
`CCOC(=O)C1=C(C)OC(N)=C(C#N)C1c1cccc(C)c1` (stereo not drawn) displayed a kinetic solubility of 43.7 µg/mL (≈ 146 µM).
Take `CCOC(=O)C1CCN(CCC(=O)Nc2ccc(C)cc2)CC1`: the solubility (kinetic) was greater than 47.8 µg/mL.
Turning to `O=C(O)C1CCC(N2C(=O)c3cccc([N+](=O)[O-])c3C2=O)CC1` (stereo not drawn), the kinetic solubility is greater than 47.7 µg/mL.
With `O=C(C1CCCCC1)N1CC(=O)N2CCc3ccccc3C2C1` (stereo not drawn), the solubility (kinetic) was greater than 46.9 µg/mL.
For `CC1CN(C(=O)Nc2ccc(F)cc2F)CC(C)O1` (stereo not drawn), the solubility (kinetic) is greater than 40.5 µg/mL.
The value for `C=CCNc1nc(N)c([N+](=O)[O-])c(Nc2ccccc2OC)n1` was 0.4 µg/mL (≈ 1.26 µM).
`O=S(=O)(c1cc(Br)c(Cl)s1)N1CCCC1` displayed a kinetic solubility of 1 µg/mL (≈ 3.02 µM).
Consider `C=CCNC(=O)c1cc2cccc(OC)c2oc1=O`, for which the kinetic solubility is greater than 38.9 µg/mL.
For the molecule `Cc1ccc2nc(N3CC(C)OC(C)C3)nc(-c3ccccc3)c2c1` (stereo not drawn), the kinetic solubility came to 2.2 µg/mL (≈ 6.6 µM).
For the molecule `CCOC(=O)c1cc2c(=O)c3ccccc3oc2nc1C`, the solubility (kinetic) was found to be 2.1 µg/mL (≈ 7.41 µM).
Consider `Cc1ccc(NC(=O)Cc2nc(COC(=O)c3c(F)cccc3Cl)cs2)cc1`, for which the kinetic solubility was found to be 7.5 µg/mL (≈ 17.9 µM).
As for `CCN(CC(=O)Nc1cccc(OC)c1)C(=O)c1ccco1`, the solubility (kinetic) is greater than 45.3 µg/mL.
For the molecule `Cc1c(/C=C2\NC(=O)NC2=O)c2ccccc2n1C`, the solubility (kinetic) is 36.9 µg/mL (≈ 145 µM).
`Cc1csc(NC(=O)C2=COCCO2)n1` came in with a kinetic solubility greater than 33.9 µg/mL.
For the molecule `CC1CCN(C(=O)Cn2cc(C(F)(F)F)ccc2=O)c2ccccc2S1` (stereo not drawn), the solubility (kinetic) is greater than 57.4 µg/mL.
The value for `O=C(O)/C=C/c1cn(-c2ccccc2)nc1-c1ccccc1` was greater than 43.5 µg/mL; that for `CN1CCc2c(OCC(=O)N3CCCc4ccccc43)cccc2C1=O` was greater than 52.6 µg/mL.
With `CCCCCCc1ccc(OC(=O)c2ccncc2)cc1`, the solubility (kinetic) is 0.7 µg/mL (≈ 2.47 µM).
For `CSCCC(NC(=O)c1ccco1)C(=O)NCC1CCCCC1` (stereo not drawn) the value was greater than 50.8 µg/mL.
`CC1Sc2ccc(C(=O)NCc3ccccc3Cl)cc2NC1=O` (stereo not drawn) yielded a solubility (kinetic) of 4.1 µg/mL (≈ 11.8 µM).
The molecule `CCN(C(=O)COC(=O)c1nccnc1N)c1cccc2ccccc12` displayed a kinetic solubility greater than 52.6 µg/mL.
The value for `CC(=O)c1ccc(NC(=S)N2CCC(Cc3ccccc3)CC2)cc1` was 2.8 µg/mL (≈ 7.94 µM); that for `Nc1ccc(NC(=O)c2cccs2)cc1` was greater than 32.7 µg/mL; that for `CCN(C(=O)CN1CCCC(C)C1)c1c(N)n(Cc2ccccc2)c(=O)[nH]c1=O` (stereo not drawn) was greater than 59.9 µg/mL.
In turn, `O=C(O)c1ccc(-c2cccc([N+](=O)[O-])c2)o1` returned a solubility (kinetic) greater than 35 µg/mL.
Regarding `Cc1cc(C)nc(NC(C)(C)C(=O)O)n1`, the solubility (kinetic) is greater than 31.4 µg/mL.
Regarding `CCn1c(=O)c([N+](=O)[O-])c(NCC2CCCO2)c2ccccc21` (stereo not drawn), the kinetic solubility came out at 47.5 µg/mL (≈ 150 µM).
Consider `Cc1cc(-c2ccc(Cl)cc2Cl)c(C#N)c(=O)[nH]1`, for which the kinetic solubility is 3.4 µg/mL (≈ 12.2 µM).
On to `CC(=O)Nc1ccc(S(=O)(=O)NC2Cc3ccccc3C2)cc1`, for which the kinetic solubility was 6.8 µg/mL (≈ 20.6 µM).
For the molecule `CC(=O)NC(=S)Nc1ccccc1F`, the kinetic solubility is greater than 31.8 µg/mL.
`COc1ccc(CNC(=O)CSc2nc3ccc(OC)cc3[nH]2)cc1` came in with a solubility (kinetic) greater than 53.6 µg/mL.
On to `COc1ccc(CNC(=O)CCSCc2cccc(F)c2)cc1`, for which the kinetic solubility is greater than 50 µg/mL.
